The source made the active and inactive calls.
Assays:
[1] = target: Intestinal-type alkaline phosphatase (Homo sapiens, UniProt P09923); experiment: inhibition of human intestinal alkaline phosphatase – biochemical, dose response (AID 488876); type: functional
[2] = target: T1, Alkaline phosphatase, tissue-nonspecific isozyme (Homo sapiens, UniProt P05186); experiment: TNAP enzyme inhibition by screening hits, dose response, selectivity assay for mouse IAP inhibitor project, biochemical, human TNAP, uHTS hits (AID 488906); type: functional
T1 sequence (P05186 whole entry): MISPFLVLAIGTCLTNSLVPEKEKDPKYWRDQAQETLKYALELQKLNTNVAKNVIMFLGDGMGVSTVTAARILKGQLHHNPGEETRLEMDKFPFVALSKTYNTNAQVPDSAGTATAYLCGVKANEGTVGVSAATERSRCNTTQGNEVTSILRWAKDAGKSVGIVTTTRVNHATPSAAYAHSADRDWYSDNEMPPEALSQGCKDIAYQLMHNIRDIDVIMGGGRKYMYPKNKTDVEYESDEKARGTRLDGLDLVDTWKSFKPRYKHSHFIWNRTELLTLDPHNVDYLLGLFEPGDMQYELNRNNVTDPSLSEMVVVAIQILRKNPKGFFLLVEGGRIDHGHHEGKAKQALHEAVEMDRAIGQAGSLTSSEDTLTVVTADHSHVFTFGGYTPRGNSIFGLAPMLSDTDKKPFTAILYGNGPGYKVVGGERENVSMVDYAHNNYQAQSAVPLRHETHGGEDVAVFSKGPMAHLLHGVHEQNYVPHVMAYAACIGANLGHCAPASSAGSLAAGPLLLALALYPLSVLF

[3] = target: Intestinal-type alkaline phosphatase (Mus musculus, UniProt P24822); experiment: PubChem AID 488785; type: functional
Chain of Intestinal-type alkaline phosphatase (Mus musculus, UniProt P24822) (P24822 whole entry): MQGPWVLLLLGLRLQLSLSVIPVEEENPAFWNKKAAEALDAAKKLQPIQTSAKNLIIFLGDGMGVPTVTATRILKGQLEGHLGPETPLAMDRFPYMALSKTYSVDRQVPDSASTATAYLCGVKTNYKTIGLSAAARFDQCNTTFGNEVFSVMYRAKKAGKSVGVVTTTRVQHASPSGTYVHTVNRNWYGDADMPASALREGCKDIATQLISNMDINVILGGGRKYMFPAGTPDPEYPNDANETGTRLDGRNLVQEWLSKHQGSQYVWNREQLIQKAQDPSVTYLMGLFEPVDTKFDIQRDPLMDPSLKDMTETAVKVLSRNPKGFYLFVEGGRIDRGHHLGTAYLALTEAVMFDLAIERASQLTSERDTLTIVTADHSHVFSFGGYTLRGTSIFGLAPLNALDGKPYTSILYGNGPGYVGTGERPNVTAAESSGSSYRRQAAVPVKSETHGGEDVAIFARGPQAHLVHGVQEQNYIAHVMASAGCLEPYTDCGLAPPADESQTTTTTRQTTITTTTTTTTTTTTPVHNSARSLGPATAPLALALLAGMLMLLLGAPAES

SUMO E1/E2 = SUMO E1/E2 (Homo sapiens, UniProt P63279+Q9UBE0+Q9UBT2); experiment: SAR analysis of SUMOylation using HTRF in an in-Vitro dose response assay. [Related pubchem assays (depositor defined):AID2006, AID2011, AID2018, AID2069, AID2658]; type: functional
Chain of SUMO E1/E2 (Q9UBE0 whole entry): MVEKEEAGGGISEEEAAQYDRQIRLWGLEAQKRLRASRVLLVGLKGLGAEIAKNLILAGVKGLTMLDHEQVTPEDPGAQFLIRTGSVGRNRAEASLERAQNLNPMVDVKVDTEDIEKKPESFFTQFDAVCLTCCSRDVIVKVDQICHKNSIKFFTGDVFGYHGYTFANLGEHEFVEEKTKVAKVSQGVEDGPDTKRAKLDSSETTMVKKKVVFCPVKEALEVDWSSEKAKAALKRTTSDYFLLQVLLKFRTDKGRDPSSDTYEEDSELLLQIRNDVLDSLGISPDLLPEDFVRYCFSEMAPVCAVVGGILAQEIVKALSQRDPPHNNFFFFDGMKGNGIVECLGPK
Chain of SUMO E1/E2 (Q9UBT2 whole entry): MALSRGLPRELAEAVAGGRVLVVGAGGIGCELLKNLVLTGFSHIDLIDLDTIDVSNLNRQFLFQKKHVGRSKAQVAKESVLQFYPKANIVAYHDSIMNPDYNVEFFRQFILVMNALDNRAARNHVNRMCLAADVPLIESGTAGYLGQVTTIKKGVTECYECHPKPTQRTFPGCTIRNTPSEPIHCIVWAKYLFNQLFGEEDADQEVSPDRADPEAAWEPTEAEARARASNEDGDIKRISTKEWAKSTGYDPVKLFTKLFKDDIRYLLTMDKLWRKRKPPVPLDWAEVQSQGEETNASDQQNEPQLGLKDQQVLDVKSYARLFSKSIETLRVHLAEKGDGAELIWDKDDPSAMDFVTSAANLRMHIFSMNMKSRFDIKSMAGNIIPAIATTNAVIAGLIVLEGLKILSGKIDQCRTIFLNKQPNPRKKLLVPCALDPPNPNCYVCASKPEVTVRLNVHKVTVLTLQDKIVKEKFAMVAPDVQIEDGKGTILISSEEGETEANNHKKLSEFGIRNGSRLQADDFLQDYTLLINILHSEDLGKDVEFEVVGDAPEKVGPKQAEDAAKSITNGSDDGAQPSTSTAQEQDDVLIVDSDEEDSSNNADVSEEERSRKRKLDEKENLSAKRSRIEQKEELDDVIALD
Chain of SUMO E1/E2 (P63279 whole entry): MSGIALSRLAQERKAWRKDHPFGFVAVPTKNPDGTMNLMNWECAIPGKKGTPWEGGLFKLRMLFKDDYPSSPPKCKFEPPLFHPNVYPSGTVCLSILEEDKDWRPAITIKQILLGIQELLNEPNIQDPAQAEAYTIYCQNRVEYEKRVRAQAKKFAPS

[4] = growth suppression of beta-catenin-knockout colon cells, dose response, cell-based, HCT116, human colon tumor (AID 1045); type: functional;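 also: HCT116 colon tumor cells with beta catenin knocked out; cells exposed to compound for 60 hours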
HEK293 [5] = experiment: cells; conditions: Homo sapiens
HEK293 [6] = experiment: cells; conditions: Homo sapiens; remark: listed apart in the source
[7] = Luminescence Cell-Based Dose Retest to Confirm Inhibitors of Cancer Stem Cells. [Related pubchem assays (depositor defined):AID2717, AID2721]; type: functional; conditions: Homo sapiens
[8] = growth suppression of PTEN-null colon cells, dose response, cell-based, HCT116 PTEN knockout (AID 1047); type: functional;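 also: HCT116 colon tumor cells with PTEN knocked out; cells exposed to compound for 60 hours before readout; potency for loss of cell viability measured by luminescence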
[9] = Shn3 3'UTR reporter inhibitors, dose response, cell-based, Clone20 osteoblasts, firefly luciferase, cherry-picked (AID 624132); type: functional;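 also: firefly luciferase luminescence from reporter carrying the Shn3 3'UTR in osteoblasts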
cells [10] = type: functional, cell-based
[11] = test system: Streptococcus sp. 'group A'; experiment: growth inhibition of control SK(-) GAS strain, dose response, counter-screen for streptokinase expression inhibitor project, luminescence, kanamycin, BacTiterGlo, confirmation (AID 1900); type: functional, organism-based
cells [12] = type: functional, cell-based; remark: listed apart in the source
[13] = HepG2 cell cytotoxicity, dose response, cytotoxicity control for Shn3 inhibitor project, CellTiter-Glo, cherry-picked (AID 624134); type: functional, cell-based
[14] = control 3'UTR Renilla luciferase suppression, dose response, counter-screen for Shn3 inhibitor project, cell-based, Clone20-Shn3RL, cherry-picked (AID 624133); type: functional
H9c2 = experiment: cells; type: functional, cell-based; conditions: Rattus norvegicus, H9c2, Myocardium;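 also: confirmatory concentration-response retest of ultra-high-throughput screening hits for modulation of myocardial damage; cell death induced by hydrogen peroxide oxidative stress; compound pretreatment for 60 min then peroxide exposure for 2 h; potency is for protecting the cells against peroxide damage rather than for killing them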
[15] = cytotoxicity in MIN6 insulinoma cells, dose response, cytotoxicity control, cell-based, mouse insulinoma (AID 2122); type: functional;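 also: confirmatory high-throughput counterscreen run to flag cytotoxic compounds; mouse MIN-6 beta cells carrying an insulin promoter eGFP reporter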
[16] = insulin promoter down-regulators in MIN6 cells, imaging, high-content screening, mouse beta cells (AID 1628); type: functional
Streptokinase A = target: T2, Streptokinase A (Streptococcus pyogenes serotype M1, UniProt P10520); experiment: S. pyogenes streptokinase expression inhibitors, potency, dose response, plasminogen activation absorbance, OD405 (AID 1914); type: functional, Streptococcus pyogenes M1 GAS;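 also: secreted streptokinase activity via plasminogen activation per viability signal from cell pellet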
T2 sequence (P10520 whole entry): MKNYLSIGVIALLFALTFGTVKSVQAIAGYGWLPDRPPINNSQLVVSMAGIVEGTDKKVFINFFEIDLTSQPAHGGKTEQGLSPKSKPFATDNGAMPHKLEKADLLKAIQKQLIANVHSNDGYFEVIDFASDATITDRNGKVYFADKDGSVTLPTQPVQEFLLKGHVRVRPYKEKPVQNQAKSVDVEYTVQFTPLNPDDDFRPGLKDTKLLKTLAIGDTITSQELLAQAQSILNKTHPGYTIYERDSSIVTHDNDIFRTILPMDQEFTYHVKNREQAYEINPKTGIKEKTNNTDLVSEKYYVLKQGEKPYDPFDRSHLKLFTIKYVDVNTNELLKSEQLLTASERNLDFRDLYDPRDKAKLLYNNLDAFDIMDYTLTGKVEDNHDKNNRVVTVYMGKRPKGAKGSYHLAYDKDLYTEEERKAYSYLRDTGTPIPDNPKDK

Streptococcus = experiment: Group A Streptococcus viability loss, dose response, counter-screen for streptokinase expression inhibitor project, luminescence, BacTiterGlo (AID 1915); type: functional, organism-based;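 also: potency for reduction of bacterial viability or growth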
INS1 = experiment: beta cell apoptosis inhibitors, cytokine rescue, dose response, luminescence, retest (AID 449756); type: functional, cell-based; conditions: Rattus norvegicus, INS1;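 also: cell death triggered by IL-1 beta plus TNF-alpha plus IFN-gamma mixture; protective hits raise ATP signal compared with cytokine alone wells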
Protein Wnt-3a = Protein Wnt-3a (Mus musculus, UniProt P27467); experiment: Wnt3a-driven reporter signaling inhibition, dose response, selectivity assay for Gli-SUFU antagonist project, Wnt-LIGHT cells, luminescence (AID 651570); type: functional; conditions: read-out: IC50_Mean;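 also: Wnt-LIGHT reporter cells stimulated with conditioned medium from Wnt3a-producing cells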
Chain of Protein Wnt-3a (P27467 whole entry): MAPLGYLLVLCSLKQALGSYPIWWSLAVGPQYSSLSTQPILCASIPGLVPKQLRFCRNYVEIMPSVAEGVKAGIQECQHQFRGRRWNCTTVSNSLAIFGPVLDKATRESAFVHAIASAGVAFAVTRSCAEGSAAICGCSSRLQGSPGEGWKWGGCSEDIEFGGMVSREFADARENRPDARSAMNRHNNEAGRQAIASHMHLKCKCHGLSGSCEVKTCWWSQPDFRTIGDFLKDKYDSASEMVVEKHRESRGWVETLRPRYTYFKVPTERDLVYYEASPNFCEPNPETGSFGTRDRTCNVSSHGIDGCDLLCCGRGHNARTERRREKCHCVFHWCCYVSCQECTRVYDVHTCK

[17] = target: Voltage-dependent T-type calcium channel subunit alpha-1H (Homo sapiens, UniProt O95180); type: functional;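 also: channel activity triggered by adding a high calcium stimulation buffer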
Chain of Voltage-dependent T-type calcium channel subunit alpha-1H (O95180 whole entry): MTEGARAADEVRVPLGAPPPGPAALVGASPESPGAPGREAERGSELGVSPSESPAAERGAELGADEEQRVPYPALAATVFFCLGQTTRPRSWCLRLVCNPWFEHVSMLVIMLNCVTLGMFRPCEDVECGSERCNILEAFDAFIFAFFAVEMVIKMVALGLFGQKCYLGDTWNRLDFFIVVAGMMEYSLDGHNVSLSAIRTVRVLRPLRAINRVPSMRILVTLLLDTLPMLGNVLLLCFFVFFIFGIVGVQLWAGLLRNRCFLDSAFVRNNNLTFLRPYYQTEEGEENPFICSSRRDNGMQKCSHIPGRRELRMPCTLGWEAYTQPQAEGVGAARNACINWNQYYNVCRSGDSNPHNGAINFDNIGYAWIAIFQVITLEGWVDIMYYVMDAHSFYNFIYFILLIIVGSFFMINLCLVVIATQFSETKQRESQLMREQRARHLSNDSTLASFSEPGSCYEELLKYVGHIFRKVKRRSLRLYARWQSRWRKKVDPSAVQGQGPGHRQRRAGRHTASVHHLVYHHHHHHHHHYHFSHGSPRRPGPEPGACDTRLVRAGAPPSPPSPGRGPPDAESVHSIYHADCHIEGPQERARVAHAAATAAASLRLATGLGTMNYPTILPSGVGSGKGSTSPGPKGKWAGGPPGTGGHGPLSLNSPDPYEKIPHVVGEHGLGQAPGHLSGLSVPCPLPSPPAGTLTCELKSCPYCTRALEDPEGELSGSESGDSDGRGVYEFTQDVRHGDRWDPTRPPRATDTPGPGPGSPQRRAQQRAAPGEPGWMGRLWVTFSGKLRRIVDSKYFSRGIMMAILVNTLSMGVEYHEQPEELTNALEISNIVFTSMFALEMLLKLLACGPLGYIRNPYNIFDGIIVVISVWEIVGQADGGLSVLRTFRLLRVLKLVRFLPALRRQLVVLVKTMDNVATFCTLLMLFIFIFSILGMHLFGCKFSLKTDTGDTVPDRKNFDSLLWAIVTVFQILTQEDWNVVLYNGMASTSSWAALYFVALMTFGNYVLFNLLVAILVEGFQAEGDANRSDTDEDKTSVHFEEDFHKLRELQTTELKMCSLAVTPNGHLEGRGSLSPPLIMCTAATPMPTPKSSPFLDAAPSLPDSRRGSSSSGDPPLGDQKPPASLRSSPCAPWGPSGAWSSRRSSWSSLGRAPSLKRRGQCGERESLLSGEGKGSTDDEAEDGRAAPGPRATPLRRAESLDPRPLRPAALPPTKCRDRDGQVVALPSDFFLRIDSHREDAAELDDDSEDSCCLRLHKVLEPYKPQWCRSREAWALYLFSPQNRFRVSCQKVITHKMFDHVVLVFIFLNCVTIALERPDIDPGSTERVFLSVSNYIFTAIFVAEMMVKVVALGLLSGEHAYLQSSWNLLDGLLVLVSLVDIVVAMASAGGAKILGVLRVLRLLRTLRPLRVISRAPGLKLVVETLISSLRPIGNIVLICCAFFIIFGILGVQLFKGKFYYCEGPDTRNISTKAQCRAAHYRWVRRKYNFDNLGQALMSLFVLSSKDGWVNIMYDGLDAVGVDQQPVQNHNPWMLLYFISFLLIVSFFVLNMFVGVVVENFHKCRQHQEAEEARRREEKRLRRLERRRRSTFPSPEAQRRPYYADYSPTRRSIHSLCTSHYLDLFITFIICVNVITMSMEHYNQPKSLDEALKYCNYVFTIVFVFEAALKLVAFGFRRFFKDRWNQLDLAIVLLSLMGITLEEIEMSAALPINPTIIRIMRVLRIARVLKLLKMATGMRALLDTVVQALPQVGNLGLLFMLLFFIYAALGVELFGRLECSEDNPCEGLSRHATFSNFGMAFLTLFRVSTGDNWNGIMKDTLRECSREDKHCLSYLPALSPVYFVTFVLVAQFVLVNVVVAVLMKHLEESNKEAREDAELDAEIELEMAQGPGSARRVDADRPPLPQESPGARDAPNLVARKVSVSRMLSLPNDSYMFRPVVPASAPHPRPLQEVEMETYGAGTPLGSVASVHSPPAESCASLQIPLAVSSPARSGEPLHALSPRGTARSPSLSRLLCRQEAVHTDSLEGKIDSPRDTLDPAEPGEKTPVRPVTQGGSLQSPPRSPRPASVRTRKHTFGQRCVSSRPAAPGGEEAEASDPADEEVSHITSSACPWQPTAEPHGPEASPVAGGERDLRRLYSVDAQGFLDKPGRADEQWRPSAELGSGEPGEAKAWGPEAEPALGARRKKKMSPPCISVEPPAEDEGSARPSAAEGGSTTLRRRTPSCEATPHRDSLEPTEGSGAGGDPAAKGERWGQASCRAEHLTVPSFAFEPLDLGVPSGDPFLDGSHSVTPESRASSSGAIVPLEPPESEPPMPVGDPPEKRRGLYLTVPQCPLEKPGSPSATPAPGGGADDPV

[18] = target: T3, Ubiquitin-conjugating enzyme E2 N (Homo sapiens, UniProt P61088); type: functional
T3 sequence (P61088 whole entry): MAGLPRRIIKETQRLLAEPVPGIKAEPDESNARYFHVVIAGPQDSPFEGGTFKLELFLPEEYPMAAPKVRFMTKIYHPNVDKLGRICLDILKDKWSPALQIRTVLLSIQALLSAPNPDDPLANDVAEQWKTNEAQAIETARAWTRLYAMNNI

Bcl-2-related protein A1 = target: T4, Bcl-2-related protein A1 (Mus musculus, UniProt Q07440); type: functional;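 also: confirmatory dose–response counterscreen on Bfl-1, used to check hits from a UBC13 polyubiquitin inhibitor campaign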
T4 sequence (Q07440 whole entry): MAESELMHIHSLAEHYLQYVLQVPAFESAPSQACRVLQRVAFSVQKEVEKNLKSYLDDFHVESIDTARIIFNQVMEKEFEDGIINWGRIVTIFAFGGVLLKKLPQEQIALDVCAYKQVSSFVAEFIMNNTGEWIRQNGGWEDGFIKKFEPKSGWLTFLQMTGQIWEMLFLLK

[19] = target: T3, Ubiquitin-conjugating enzyme E2 N; type: functional; remark: listed apart in the source
[20] = target: Lysine-specific demethylase 4C (Homo sapiens, UniProt Q9H3R0); experiment: GASC-1 (JMJD2C) histone demethylase inhibitors, dose response, biochemical, DELFIA europium, cherry-picked samples (AID 488835); type: functional

Chain of Intestinal-type alkaline phosphatase (Homo sapiens, UniProt P09923) (P09923 whole entry): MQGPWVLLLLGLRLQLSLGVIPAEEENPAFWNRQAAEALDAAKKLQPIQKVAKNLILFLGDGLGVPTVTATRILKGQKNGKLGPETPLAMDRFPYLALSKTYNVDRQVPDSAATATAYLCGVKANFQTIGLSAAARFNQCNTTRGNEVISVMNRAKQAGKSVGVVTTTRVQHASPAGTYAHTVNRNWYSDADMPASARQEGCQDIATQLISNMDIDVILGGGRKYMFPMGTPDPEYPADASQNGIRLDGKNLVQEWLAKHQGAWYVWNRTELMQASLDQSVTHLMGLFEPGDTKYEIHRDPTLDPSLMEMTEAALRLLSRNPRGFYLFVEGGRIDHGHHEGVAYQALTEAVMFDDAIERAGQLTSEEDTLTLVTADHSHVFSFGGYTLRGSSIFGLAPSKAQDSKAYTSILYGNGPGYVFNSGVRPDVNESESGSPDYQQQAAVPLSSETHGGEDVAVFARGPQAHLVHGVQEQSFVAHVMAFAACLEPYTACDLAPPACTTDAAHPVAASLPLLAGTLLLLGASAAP

Which IC50 [1] does the source give for Cc1ccc(C)c(NC(=O)CCNS(=O)(=O)c2ccc3[nH]c(=O)oc3c2)c1 here?
Its IC50 is > 100 µM (inactive).

And the IC50 [2]?
The IC50 was 22.6 µM (active).

And the IC50 [3]?
Its IC50 is 5.21 µM (active).

For O=c1c2ccccc2nc(COc2ccccc2)n1N=Cc1cc([N+](=O)[O-])ccc1O, which IC50 (SUMO E1/E2) is on record?
The IC50 was 43.7 µM (active).

With O=C(NCCC1=CCCCC1)c1coc(=O)c(Br)c1 as the compound, how does the EC50 [4] read?
Its EC50 is 28.6 µM (active).

And the EC50 (HEK293 [5])?
Its EC50 is > 59.6 µM (inactive).

And the EC50 (HEK293 [6])?
Its EC50 is > 59.6 µM (inactive).

And the AC50 [7]?
The AC50 was 6.05 µM (active).

And the EC50 [8]?
Its EC50 is 28.9 µM (active).

With O=C(Nc1nc(-c2ccccn2)cs1)c1cccc(-n2cnnn2)c1 as the compound, how does the AC50 [9] read?
Its AC50 is 2.58 µM (active).

What about the EC50 (cells [10]) of the same compound?
The EC50 was > 350 µM (not active).

What about the EC50 [11] of the same compound?
The EC50 was 24.7 µM (active).

What about the EC50 (cells [12]) of the same compound?
The EC50 was > 350 µM (not active).

What about the AC50 [13] of the same compound?
The AC50 was 8.31 µM (active).

And the AC50 [14]?
The AC50 was 2.43 µM (active).

And the IC50 (H9c2)?
The IC50 was > 79 µM (inactive).

What about the IC50 [15] of the same compound?
Its IC50 is 2.54 µM (active).

What about the IC50 [16] of the same compound?
The IC50 was 2.43 µM (active).

And the EC50 (Streptokinase A)?
The EC50 was > 150 µM (not active).

And the EC50 (Streptococcus)?
The EC50 was > 150 µM (not active).

And the AC50 (INS1)?
Its AC50 is 1.56 µM (active).

Which results are given for CCCOc1ccccc1N=C(NC(=O)COc1ccc(OC)cc1)Nc1nc(C)cc(C)n1?
AC50 [9]: 3.24 µM (active); IC50 (Protein Wnt-3a): 6.39 µM (active); AC50 [13]: 49.3 µM (active); AC50 [14]: 6.58 µM (active); EC50 [17]: 8.53 µM (active); IC50 [15]: 3.16 µM (active); IC50 [16]: 2.3 µM (active)

For COc1ccccc1NC(=O)CN1CCC(n2c(C)nc3cc(F)ccc32)CC1, which IC50 [18] is on record?
Its IC50 is 1.78 µM (active).

What about the IC50 (Bcl-2-related protein A1) of the same compound?
Its IC50 is > 20 µM (inactive).

And the IC50 [19]?
Its IC50 is 1.53 µM (active).

And the EC50 (HEK293 [5])?
Its EC50 is > 59.6 µM (inactive).

What about the EC50 (HEK293 [6]) of the same compound?
Its EC50 is > 59.6 µM (inactive).

Which AC50 [20] does the source give for COc1ccc(NC(=O)CNC(=O)c2nn(-c3ccc(OC)c(Cl)c3)c(=O)c3ccccc23)c(OC)c1 here?
The AC50 was 21.5 µM (active).

— ChEMBL document CHEMBL1201862, “PubChem BioAssay data set” (2004)
